Data as given in article PMC2567432 (PLoS ONE, 2008).

Key:
[1] = tested on: brain astrocytoma 1321N1 cells; test: Cell proliferation WST-1 assay, 1321N1; type: cell-based; details: 1321N1, 24 h; for anti-proliferative effect compared to curcumin: WST-1
Protocol: (§1) Figure 3 Growth inhibition of different tumor cell lines by polyphenols. […] Following 24-h incubation, cell proliferation was evaluated using the WST-1 assay.
(§2) Tumor cells were cultured in RPMI medium containing 10% fetal calf serum (RPMI-FCS) (PC-3, JIMT-1, MDA-MD 231) or in DMEM-FCS (astrocytoma 1321N1 cells) containing penicillin/streptomycin (100 U penicillin/ml; 100 µg streptomycin/ml) at 37°C/5% CO2. Cytosolic protein extracts of tumor cells were prepared using extraction buffer composed of 25 mM Tris, 2 mM EDTA, 10% Glycerol, 1% Triton ×100, 2 mM DTT, 1mM PMSF, pH. 7.0 containing 0.3% protease inhibitor cocktail. Protein content was determined according to Bradford. Specific activity of enzymes analyzed in cell extracts was expressed as U/mg protein.
(§3) Cell proliferation/vitality of tumor cells (96-well plates; 5000 cells/well) and primary human hepatocytes (24-well plates; 0.25×10^6 cells/well) was assayed using the WST-1 assay according to manufacturer's instructions. Trypan blue exclusion was performed by staining cells with 0.4% aqueous trypan blue solution according to the manufacturer's instructions.

astrocytoma 1321N1 cells = test: Cellular ATP content (CellTiter-Glo), 1321N1; type: cell-based; details: 1321N1, 6 h; curcumin 0–100 µM, MGO 0–1000 µM
Protocol: (§4) Cellular ATP content was determined using the CellTiter-Glo® Luminescent Cell Viability Assay. Data represent the mean±S.D. of independent experiments (n = 12).
(§5) Cell ATP content was determined by means of the CellTiter-Glo® Luminescent Cell Viability Assay according to the manufacturer's instructions (Promega, Madison, USA). […] After 6-h incubation, cells were mixed with test reagents and luminescence was read according to the manufacturer's instructions. A standard curve was prepared from ATP (1 µM to 10 nM) in medium.

JIMT-1 cells = test: Cellular ATP content (CellTiter-Glo), JIMT-1; type: cell-based, human; details: JIMT-1, 6 h; curcumin 0–100 µM, MGO 0–1000 µM
Protocol: as §4, §5

[2] = tested on: breast cancer JIMT-1 cells; test: Cell proliferation WST-1 assay, JIMT-1; type: cell-based, human; details: JIMT-1, 24 h, WST-1, increasing concentrations
Protocol: as §1, §2, §3

glyoxalase 1 (Glo1) = target: T1, glyoxalase 1 (Glo1) (Homo sapiens, UniProt Q04760); test: Inhibition of purified glyoxalase 1 activity (Dixon plot); type: biochemical; details: purified Glo1 70 mU, substrates MGO and GSH, Dixon plot
T1 construct: Glo1 was purified from human erythrocytes as described earlier; from tissue; host or cells: human erythrocytes
T1 sequence (Q04760 2-184 limits assumed): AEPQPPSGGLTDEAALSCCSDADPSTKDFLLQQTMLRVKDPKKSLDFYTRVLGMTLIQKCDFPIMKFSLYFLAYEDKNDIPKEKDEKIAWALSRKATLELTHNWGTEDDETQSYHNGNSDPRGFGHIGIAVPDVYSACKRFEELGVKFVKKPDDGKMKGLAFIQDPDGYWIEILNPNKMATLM
Protocol: Purified Glo1 (70 mU) was incubated with increasing concentrations of different polyphenols at three substrate concentrations; and enzyme activity was recorded (n = 3). The inhibitor concentration was plotted vs. the reciprocal of enzyme activity (1/v) in Dixon plots.
Glo1 was purified from human erythrocytes as described earlier. Briefly, erythrocytes were treated with butanol/chloroform to denature hemoglobin followed by acetone and ammonium sulphate fractionation.
The determination of Glo1 (E.C.4.4.1.5) activity has been described previously. […] The inhibition constant, Ki value of the inhibitors was evaluated by Dixon plot showing the reciprocal of enzyme velocity against the inhibitor concentration at variable concentrations of the substrate. Human Glo2 (E.C.3.1.2.6) was measured using the substrate S-lactoylglutathione as described earlier.
A goodness-of-fit criterion (Akaike's information criterion, AIC) was used for falsification of incompatible inhibition models. […] Spearman's rank correlation test was applied to evaluate the correlation between the IC50 values of pro-inflammatory cytokine release and the Ki-values of various polyphenols. Data were presented as means±S.D. of at least three independent experiments. […] In all other tests, significance has been considered at values of p<0.05.

[3] = tested on: IL-1β release from LPS-stimulated blood cells; test: Whole blood assay, LPS-induced IL-1β release (cytometric bead array); type: cell-based; details: Homo sapiens; heparinized whole blood, LPS 10 ng/ml, 6 h, 37°C
Protocol: Figure 2 Effect of polyphenols on IL-1β release from LPS-stimulated blood cells. Heparinized whole blood was stimulated by LPS in the absence or presence of polyphenols at increasing concentrations and incubated for 6 h at 37°C with 5% CO2. (A) Released IL-1β as measured in cell supernatants. Samples without additives but LPS were set at 100%. (B) The calculated […] values of the respective polyphenols. Data represent mean±S.D. of independent experiments (n = 6).
Whole blood assay was performed as previously described. Accordingly, LPS (10 ng/ml), test substances and 200 µl heparinized human blood of healthy donors, obtained from the blood bank of the University of Leipzig, were co-incubated with serum-free medium (RPMI-SF, 1 ml final volume) in 24-well culture plates for 6 h at 37°C with 5% CO2. Samples were removed, centrifuged at 2000×g for 10 min and supernatants were stored at −20°C until assaying for inflammatory cytokines.
Assessment of cytokine levels in supernatants of human blood cell cultures was accomplished using Cytometric Bead Array (CBA™, BD Biosciences, San Jose, U.S.A). The procedure was carried out according to the manufacturer's instruction. Fluorescence measurement and analysis were performed using a FACSCalibur and the CellQuest software (BD Biosciences).

Structure (SMILES)	Ki (glyoxalase 1 (Glo1)) [µM]	IC50 [3] [µM]	anti-proliferative effect compared to curcumin [1]	other results
O=c1c(O)c(-c2cc(O)c(O)c(O)c2)oc2cc(O)cc(O)c12 [myricetin]			less anti-proliferative	
CC(=O)C=O [MGO, methylglyoxal, reference compound]				effect on cell proliferation ([1]; WST-1, increasing concentrations): anti-proliferative properties; cellular ATP content (astrocytoma 1321N1 cells): comparable effects; cellular ATP content (JIMT-1 cells): comparable effects; effect on cell proliferation [2]: anti-proliferative properties
C[C@@H]1O[C@@H](OC[C@H]2O[C@@H](Oc3c(-c4ccc(O)c(O)c4)oc4cc(O)cc(O)c4c3=O)[C@H](O)[C@@H](O)[C@@H]2O)[C@H](O)[C@H](O)[C@H]1O [rutin]	140 ± 15			
O=c1c(O)c(-c2ccc(O)c(O)c2)oc2cc(O)cc(O)c12 [quercetin]		20	less anti-proliferative	

Further lines, with some results ahead:

Ki (glyoxalase 1 (Glo1)) [µM]	IC50 [3] [µM]	Structure (SMILES)	anti-proliferative effect compared to curcumin [1]	other results
21 ± 3.8	34.6	O=c1c(O)c(-c2ccc(O)cc2)oc2cc(O)cc(O)c12 [kaempferol]		
35 ± 6.3	68	O=c1cc(-c2ccc(O)c(O)c2)oc2cc(O)cc(O)c12 [luteolin]		
